# Tests used:
# Homo sapiens = species on record: Homo sapiens; assay: Selectivity index, ratio of EC50 for human mGlu4 receptor to EC50 for human mGlu1 receptor
# [1] = target: T1, Metabotropic glutamate receptor 1 (Homo sapiens, UniProt Q13255); assay: Positive allosteric modulation of human mGlu1 receptor in HEK293 cells assessed as potentiation of glutamate-induced calcium mobiliztion by Fluo-4AM dye based fluorescence analysis; format: functional, cell-based; details: read-out: EC50
# Target sequence in this assay (Q13255 whole entry): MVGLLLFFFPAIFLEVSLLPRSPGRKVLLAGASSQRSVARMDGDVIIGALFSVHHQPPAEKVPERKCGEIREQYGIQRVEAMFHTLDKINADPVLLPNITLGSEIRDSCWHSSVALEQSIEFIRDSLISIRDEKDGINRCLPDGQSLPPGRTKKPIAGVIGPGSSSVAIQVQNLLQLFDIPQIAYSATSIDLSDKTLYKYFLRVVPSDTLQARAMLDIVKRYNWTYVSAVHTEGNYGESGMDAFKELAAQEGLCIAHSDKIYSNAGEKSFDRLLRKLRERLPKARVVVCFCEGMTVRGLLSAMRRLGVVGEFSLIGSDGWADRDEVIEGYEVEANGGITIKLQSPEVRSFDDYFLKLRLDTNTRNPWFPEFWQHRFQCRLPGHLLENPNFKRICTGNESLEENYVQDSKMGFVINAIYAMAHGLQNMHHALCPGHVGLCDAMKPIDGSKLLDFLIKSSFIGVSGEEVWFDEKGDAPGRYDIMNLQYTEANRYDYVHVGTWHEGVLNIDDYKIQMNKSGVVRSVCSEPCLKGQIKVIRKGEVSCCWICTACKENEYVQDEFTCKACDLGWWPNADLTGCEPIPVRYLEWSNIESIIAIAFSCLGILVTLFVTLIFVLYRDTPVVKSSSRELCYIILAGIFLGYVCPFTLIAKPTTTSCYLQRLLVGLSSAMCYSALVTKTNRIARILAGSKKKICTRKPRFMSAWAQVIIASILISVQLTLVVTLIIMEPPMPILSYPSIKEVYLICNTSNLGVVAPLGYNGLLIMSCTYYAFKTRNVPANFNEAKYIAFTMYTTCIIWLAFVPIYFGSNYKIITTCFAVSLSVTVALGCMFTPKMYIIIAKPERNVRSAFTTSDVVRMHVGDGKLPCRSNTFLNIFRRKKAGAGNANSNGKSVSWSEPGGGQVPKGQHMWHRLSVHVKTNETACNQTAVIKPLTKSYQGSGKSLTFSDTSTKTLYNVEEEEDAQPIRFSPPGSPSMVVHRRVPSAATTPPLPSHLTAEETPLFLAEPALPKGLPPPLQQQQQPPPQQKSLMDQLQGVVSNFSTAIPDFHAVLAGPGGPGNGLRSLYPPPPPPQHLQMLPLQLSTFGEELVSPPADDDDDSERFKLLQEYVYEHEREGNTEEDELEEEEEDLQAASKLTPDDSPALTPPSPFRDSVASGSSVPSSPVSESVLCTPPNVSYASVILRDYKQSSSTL
# [2] = target: T1, Metabotropic glutamate receptor 1; assay: Positive allosteric modulation of human mGlu1 receptor in HEK293 cells assessed as potentiation of glutamate-induced calcium mobiliztion by Fluo-4AM dye based fluorescence analysis relative to glutamate; format: functional, cell-based
# Target sequence in this assay (Q13255 19-1194 limits assumed): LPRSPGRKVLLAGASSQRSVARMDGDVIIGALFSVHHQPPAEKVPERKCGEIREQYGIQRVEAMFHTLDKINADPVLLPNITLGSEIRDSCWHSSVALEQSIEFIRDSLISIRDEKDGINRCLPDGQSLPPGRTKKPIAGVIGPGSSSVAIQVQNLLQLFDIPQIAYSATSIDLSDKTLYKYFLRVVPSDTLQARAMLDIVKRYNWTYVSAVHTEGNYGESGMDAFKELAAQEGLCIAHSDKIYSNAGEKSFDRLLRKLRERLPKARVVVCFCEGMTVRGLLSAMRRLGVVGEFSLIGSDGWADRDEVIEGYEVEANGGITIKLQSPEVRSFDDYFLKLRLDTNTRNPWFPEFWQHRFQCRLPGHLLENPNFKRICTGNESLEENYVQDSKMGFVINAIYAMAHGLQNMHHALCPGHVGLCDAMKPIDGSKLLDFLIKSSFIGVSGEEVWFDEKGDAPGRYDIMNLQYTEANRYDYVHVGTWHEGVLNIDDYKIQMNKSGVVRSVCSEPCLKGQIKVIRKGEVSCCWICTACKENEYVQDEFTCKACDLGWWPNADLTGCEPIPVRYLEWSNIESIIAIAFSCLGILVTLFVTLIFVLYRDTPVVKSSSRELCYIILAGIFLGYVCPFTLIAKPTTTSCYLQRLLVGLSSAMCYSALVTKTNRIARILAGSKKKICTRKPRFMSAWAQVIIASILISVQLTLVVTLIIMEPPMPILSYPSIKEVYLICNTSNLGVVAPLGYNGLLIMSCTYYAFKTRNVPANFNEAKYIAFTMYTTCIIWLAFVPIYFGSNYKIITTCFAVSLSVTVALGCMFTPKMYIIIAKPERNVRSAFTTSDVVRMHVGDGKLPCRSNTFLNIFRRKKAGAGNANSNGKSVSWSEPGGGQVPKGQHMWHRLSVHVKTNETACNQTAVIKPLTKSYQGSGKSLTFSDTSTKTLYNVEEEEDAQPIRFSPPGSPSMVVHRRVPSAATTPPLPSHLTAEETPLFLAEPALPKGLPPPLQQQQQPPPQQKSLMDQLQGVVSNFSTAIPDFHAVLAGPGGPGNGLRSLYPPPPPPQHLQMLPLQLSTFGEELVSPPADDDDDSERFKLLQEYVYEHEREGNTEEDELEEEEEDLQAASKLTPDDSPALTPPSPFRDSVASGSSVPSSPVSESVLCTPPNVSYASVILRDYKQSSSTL
# [3] = target: T2, Metabotropic glutamate receptor 4 (Homo sapiens, UniProt Q14833); assay: Positive allosteric modulation of human mGlu4 receptor assessed as potentiation of glutamate-induced calcium mobiliztion by cell based assay; format: functional
# [4] = target: T2, Metabotropic glutamate receptor 4; assay: Positive allosteric modulation of human mGlu4 receptor assessed as potentiation of glutamate-induced calcium mobiliztion by cell based assay relative to PHCCC
# T2 sequence (Q14833 whole entry): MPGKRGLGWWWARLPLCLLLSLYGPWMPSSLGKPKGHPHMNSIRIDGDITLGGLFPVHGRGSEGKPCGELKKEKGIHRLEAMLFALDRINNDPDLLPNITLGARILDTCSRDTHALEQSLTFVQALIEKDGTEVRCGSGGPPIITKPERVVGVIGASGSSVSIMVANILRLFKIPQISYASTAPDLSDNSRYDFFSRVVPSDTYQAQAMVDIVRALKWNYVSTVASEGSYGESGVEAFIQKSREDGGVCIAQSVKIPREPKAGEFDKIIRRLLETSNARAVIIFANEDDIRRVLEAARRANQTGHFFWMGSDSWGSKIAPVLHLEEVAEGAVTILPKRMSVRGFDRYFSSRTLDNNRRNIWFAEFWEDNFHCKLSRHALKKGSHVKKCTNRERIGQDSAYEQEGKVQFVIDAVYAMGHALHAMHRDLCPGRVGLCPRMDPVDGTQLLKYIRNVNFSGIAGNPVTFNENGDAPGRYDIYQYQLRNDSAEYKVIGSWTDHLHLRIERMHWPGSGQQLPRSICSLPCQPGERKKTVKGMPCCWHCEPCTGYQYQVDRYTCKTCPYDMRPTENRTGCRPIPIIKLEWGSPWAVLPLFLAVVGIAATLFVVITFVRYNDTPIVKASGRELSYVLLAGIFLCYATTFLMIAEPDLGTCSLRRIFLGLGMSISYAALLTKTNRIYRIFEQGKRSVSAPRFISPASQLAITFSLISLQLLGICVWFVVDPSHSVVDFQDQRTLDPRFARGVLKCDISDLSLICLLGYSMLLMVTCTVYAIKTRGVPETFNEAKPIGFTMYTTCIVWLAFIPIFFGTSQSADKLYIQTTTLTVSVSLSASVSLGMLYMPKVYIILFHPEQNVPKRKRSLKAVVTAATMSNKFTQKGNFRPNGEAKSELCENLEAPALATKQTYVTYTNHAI
Structure (SMILES),EC50 [1],%max [2],further results
O=C(Nc1ccc(N2C(=O)c3ccccc3C2=O)c(Cl)c1)c1ccc(Br)o1,> 10 µM,45%,–
CS(=O)(=O)c1ccc(C(=O)Nc2ccc(N3C(=O)c4ccccc4C3=O)c(Cl)c2)o1,> 10 µM,35%,–
CCc1ccc(C(=O)Nc2ccc(N3C(=O)c4ccccc4C3=O)c(Cl)c2)o1,> 10 µM,30%,–
O=C(Nc1ccc(N2C(=O)c3ccccc3C2=O)c(Cl)c1)c1ccco1,0.55 µM,76%,–
O=C(Nc1ccc(N2C(=O)c3ccccc3C2=O)c(Cl)c1)c1cnc[nH]1,> 10 µM,–,–
O=C(Nc1ccc(N2C(=O)c3ccccc3C2=O)c(Cl)c1)c1cccs1,> 10 µM,–,–
O=C(Nc1ccc(N2C(=O)c3ccccc3C2=O)c(Cl)c1)C1CCCO1 (stereo not given),> 10 µM,–,–
O=C(Nc1ccc(N2C(=O)c3ccccc3C2=O)c(Cl)c1)c1ncco1,> 10 µM,–,–
O=C(Nc1ccc(N2C(=O)c3ccccc3C2=O)c(Cl)c1)c1coc2ccccc12,> 10 µM,–,–
Cc1ccoc1C(=O)Nc1ccc(N2C(=O)c3ccc(F)cc3C2=O)c(Cl)c1,0.0241 µM,88%,Ratio EC50 (Homo sapiens): 29.7; EC50 ([3]; read-out: EC50): 0.712 µM; EC50 ([3]; read-out: pEC50 (converted)): 0.724 µM; %max [4]: 97%
Cc1ccc(C(=O)Nc2ccc(N3C(=O)c4ccccc4C3=O)c(Cl)c2)o1,> 10 µM,60%,–
O=C(Nc1ccc(N2C(=O)c3ccccc3C2=O)c(Cl)c1)c1cn[nH]c1,> 10 µM,–,–
O=C(Nc1ccc(N2C(=O)c3ccccc3C2=O)c(Cl)c1)c1cnn[nH]1,> 10 µM,–,–
Cc1ccoc1C(=O)Nc1ccc(N2C(=O)c3ccccc3C2=O)c(Cl)c1,0.097 µM,118%,–
O=C(Nc1ccc(N2C(=O)c3ccccc3C2=O)c(Cl)c1)c1ccc(C(F)(F)F)o1,> 10 µM,43%,–

# Continued, in another order:
EC50 [1],%max [2],Structure (SMILES),further results
0.033 µM,91%,Cc1ccoc1C(=O)Nc1ccc(N2C(=O)c3cccc(Cl)c3C2=O)c(Cl)c1,Ratio EC50 (Homo sapiens): 34.5; EC50 ([3]; read-out: EC50): 1.14 µM; %max [4]: 163%
> 10 µM,55%,O=C(Nc1ccc(N2C(=O)c3ccccc3C2=O)c(Cl)c1)c1ccc(Cl)o1,–
> 10 µM,–,CN(C)Cc1ccc(C(=O)Nc2ccc(N3C(=O)c4ccccc4C3=O)c(Cl)c2)o1,–
0.0243 µM,86%,Cc1ccoc1C(=O)Nc1ccc(N2C(=O)c3cccc(C)c3C2=O)c(Cl)c1,Ratio EC50 (Homo sapiens): 25.5; EC50 ([3]; read-out: EC50): 0.62 µM; %max [4]: 153%
> 10 µM,39%,O=C(Nc1ccc(N2C(=O)c3ccccc3C2=O)c(Cl)c1)c1csnn1,–
> 10 µM,–,O=C(Nc1ccc(N2C(=O)c3ccccc3C2=O)c(Cl)c1)c1cncs1,–
4.47 µM,107%,O=C(Nc1ccc(N2C(=O)c3ccccc3C2=O)c(Cl)c1)c1cscn1,–
> 10 µM,–,O=C(Nc1ccc(N2C(=O)c3ccccc3C2=O)c(Cl)c1)c1cnco1,–
> 10 µM,–,O=C(Nc1ccc(N2C(=O)c3ccccc3C2=O)c(Cl)c1)c1occc1-c1ccccc1,–
> 10 µM,–,Cc1cc(C)c(C(=O)Nc2ccc(N3C(=O)c4ccccc4C3=O)c(Cl)c2)o1,–
> 10 µM,–,O=C(Nc1ccc(N2C(=O)c3ccccc3C2=O)c(Cl)c1)c1cocn1,–
> 10 µM,–,CC(C)(C)c1ccc(C(=O)Nc2ccc(N3C(=O)c4ccccc4C3=O)c(Cl)c2)o1,–
> 10 µM,–,O=C(Nc1ccc(N2C(=O)c3ccccc3C2=O)c(Cl)c1)c1cc2ccccc2o1,–
0.0544 µM,86%,Cc1ccc2c(c1)C(=O)N(c1ccc(NC(=O)c3occc3C)cc1Cl)C2=O,Ratio EC50 (Homo sapiens): 5.9; EC50 ([3]; read-out: EC50): 0.323 µM; %max [4]: 69%
> 10 µM,–,O=C(Nc1ccc(N2C(=O)c3ccccc3C2=O)c(Cl)c1)c1ccc[nH]1,–
> 10 µM,30%,O=C(Nc1ccc(N2C(=O)c3ccccc3C2=O)c(Cl)c1)c1ccc(-c2ccccc2)o1,–
> 10 µM,–,O=C(Nc1ccc(N2C(=O)c3ccccc3C2=O)c(Cl)c1)c1ccno1,–
